For orientation: Ki means the dissociation constant of the complex between target and ligand, obtained from inhibition or displacement. As a reminder, the Kd is the free concentration of one partner at which half of the binding sites on the other are occupied at equilibrium, for simple one-to-one binding. As a reminder, the IC50 is the concentration at which inhibition is half-maximal.

Starred links: 1 amine or outer side, 2 acyl side, 3 side chain; linkers in the order of their positions; H or OH if unused. Positions of bridges follow the written chain, without caps; N, C: chain ends. Non-standard residues stand in square brackets, D forms with d. Residues, ends and D or L forms follow the SMILES beside them. X1 = [N-]=[N+]=Nc1ccc(C[C@H](N[*:1])C(=O)[*:2])cc1I; X2 = O=C(CC1(S[*:2])CCCCC1)[*:1]; Orn = NCCC[C@H](N)C(=O)O

The target in assay [1] is T1, Oxytocin receptor (Homo sapiens, UniProt P30559).
T1 sequence (P30559 whole entry): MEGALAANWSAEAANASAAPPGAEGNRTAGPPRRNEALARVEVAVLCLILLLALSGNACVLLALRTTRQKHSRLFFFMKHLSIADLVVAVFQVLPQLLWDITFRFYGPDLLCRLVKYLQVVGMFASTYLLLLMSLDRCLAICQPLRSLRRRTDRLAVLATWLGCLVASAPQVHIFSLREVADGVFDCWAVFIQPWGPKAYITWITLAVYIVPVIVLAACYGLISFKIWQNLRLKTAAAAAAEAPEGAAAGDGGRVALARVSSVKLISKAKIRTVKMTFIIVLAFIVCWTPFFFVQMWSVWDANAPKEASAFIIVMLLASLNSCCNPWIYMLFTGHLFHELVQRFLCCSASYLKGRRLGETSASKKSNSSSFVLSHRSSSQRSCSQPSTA
The assay is described as follows: Binding affinity towards OT receptor in CHO cells expressing the human OT receptor. The class given is cell-based.

Assay [2] has as its target T1, Oxytocin receptor. The assay is described as follows: Dissociation constant value for human OT-receptor.
Assay [3] addresses T1, Oxytocin receptor. The assay is described as follows: Ability to inhibit OT-induced inositol phosphate accumulation was determined in CHO cells expressing the human OT receptor. The class given is functional, cell-based.

In turn, `CC[C@H](C)[C@@H]1NC(=O)[C@H](Cc2ccc(O)cc2)NC(=O)CC2(CCCCC2)SSC[C@@H](C(=O)NCC(=O)N[C@@H](CCCN)C(=O)N[C@@H](Cc2ccc(N=[N+]=[N-])c(I)c2)C(N)=O)NC(=O)[C@H](CC(N)=O)NC(=O)[C@H]([C@@H](C)O)NC1=O` (YITNCG[Orn][X1]-NH2; linker N-5 via X2) showed a Ki at Oxytocin receptor [1] (cho) of 18 nM.

On to `CC[C@H](C)[C@@H]1NC(=O)[C@H](Cc2ccc(OC)cc2)NC(=O)CC2(CCCCC2)SSC[C@@H](C(=O)NCC(=O)N[C@@H](CCCN)C(=O)N[C@@H](Cc2ccc(N=[N+]=[N-])c(I)c2)C(N)=O)NC(=O)[C@H](CC(N)=O)NC(=O)[C@H]([C@@H](C)O)NC1=O` (Y(Me)ITNCG[Orn][X1]-NH2; linker N-5 via X2), for which, on Oxytocin receptor [1] (cho), the inhibitory constant (Ki) came out at 2.3 nM.

Consider `CC[C@H](C)[C@@H]1NC(=O)[C@H](Cc2ccc(OC)cc2)NC(=O)CC2(CCCCC2)SSC[C@@H](C(=O)N2CCC[C@H]2C(=O)N[C@@H](CCCN)C(=O)N[C@@H](Cc2ccc(N=[N+]=[N-])c(I)c2)C(N)=O)NC(=O)[C@H](CC(N)=O)NC(=O)[C@H]([C@@H](C)O)NC1=O` (Y(Me)ITNCP[Orn][X1]-NH2; linker N-5 via X2), for which, on Oxytocin receptor [2], the affinity, expressed as Kd, was 0.25 nM. The same molecule returned an IC50 at Oxytocin receptor [3] of 0.32 nM. The molecule further gave a Ki on Oxytocin receptor [1] (cho) of 0.3 nM.

On Oxytocin receptor [1], `CC[C@H](C)[C@@H]1NC(=O)[C@H](Cc2ccc(O)cc2)NC(=O)CC2(CCCCC2)SSC[C@@H](C(=O)N2CCC[C@H]2C(=O)N[C@@H](CCCN)C(=O)N[C@@H](Cc2ccc(N=[N+]=[N-])c(I)c2)C(N)=O)NC(=O)[C@H](CC(N)=O)NC(=O)[C@H]([C@@H](C)O)NC1=O` (YITNCP[Orn][X1]-NH2; linker N-5 via X2) showed a Ki of 0.6 nM.
